Experimental data as given in patent publication US20260125360A1, “HERBICIDAL IMIDAZOLE COMPOUNDS” (SYNGENTA CROP PROTECTION AG, priority 2022, published 2026).

What was measured:
Assay type in all cases: in vivo
Settings in all cases: 250 g/ha, evaluated after 13 days
[1] = tested on: Amaranthus retoflexus (AMARE); assay: Pre-emergence herbicide glasshouse test
Method in brief: (§1)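 Spray: acetone/water 50:50 + 0.5% Tween 20, 250 g/ha unless stated; 1 d (pre) or 8 d (post) after sowing. Glasshouse 24/16° C, 14 h light, 65% RH, watered twice daily. Read-out at 13 d: % damage binned 1–5 (5=81-100%, 1=0-20%).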

[2] = tested on: Ipomoea hederacea (IPOHE); assay: Pre-emergence herbicide glasshouse test
Method in brief: as §1

[3] = tested on: Echinochloa crus-galli (ECHCG); assay: Pre-emergence herbicide glasshouse test
Method in brief: as §1

[4] = tested on: Amaranthus palmeri (AMAPA); assay: Pre-emergence herbicide glasshouse test
Method in brief: as §1

[5] = tested on: Amaranthus retoflexus (AMARE); assay: Post-emergence herbicide glasshouse test
Method in brief: as §1

[6] = tested on: Ipomoea hederacea (IPOHE); assay: Post-emergence herbicide glasshouse test
Method in brief: as §1

[7] = tested on: Echinochloa crus-galli (ECHCG); assay: Post-emergence herbicide glasshouse test
Method in brief: as §1

[8] = tested on: Amaranthus palmeri (AMAPA); assay: Post-emergence herbicide glasshouse test
Method in brief: as §1

## Cc1nnc(Cn2cc(C(F)(F)F)nc2-c2cnc(Cl)c(F)c2)o1 [Compound 1.181]
[1]
  percentage damage caused to the plant, AMARE (five-point scale): 5 (5=81-100%)
[2]
  percentage damage caused to the plant, IPOHE (five-point scale): 4 (4=61-80%)
[3]
  percentage damage caused to the plant, ECHCG (five-point scale): 3 (3=41-60%)
[4]
  percentage damage caused to the plant, AMAPA (five-point scale): 5 (5=81-100%)
[5]
  percentage damage caused to the plant, AMARE (five-point scale): 4 (4=61-80%)
[6]
  percentage damage caused to the plant, IPOHE (five-point scale): 1 (1=0-20%)
[7]
  percentage damage caused to the plant, ECHCG (five-point scale): 1 (1=0-20%)
[8]
  percentage damage caused to the plant, AMAPA (five-point scale): 4 (4=61-80%)

## CCn1cc(Cl)c(Cn2cc(C(F)(F)F)nc2-c2ccc(Cl)nc2)n1 [Compound 1.100]
[1]
  percentage damage caused to the plant, AMARE (five-point scale): 1 (1=0-20%)
[2]
  percentage damage caused to the plant, IPOHE (five-point scale): 1 (1=0-20%)
[3]
  percentage damage caused to the plant, ECHCG (five-point scale): 1 (1=0-20%)
[4]
  percentage damage caused to the plant, AMAPA (five-point scale): 1 (1=0-20%)
[5]
  percentage damage caused to the plant, AMARE (five-point scale): 1 (1=0-20%)
[6]
  percentage damage caused to the plant, IPOHE (five-point scale): 1 (1=0-20%)
[7]
  percentage damage caused to the plant, ECHCG (five-point scale): 1 (1=0-20%)
[8]
  percentage damage caused to the plant, AMAPA (five-point scale): 1 (1=0-20%)

## CCc1noc(Cn2cc(C(F)(F)F)nc2-c2ccc(Cl)nc2)n1 [Compound 1.098]
[1]
  percentage damage caused to the plant, AMARE (five-point scale): 5 (5=81-100%)
[2]
  percentage damage caused to the plant, IPOHE (five-point scale): 4 (4=61-80%)
[3]
  percentage damage caused to the plant, ECHCG (five-point scale): 1 (1=0-20%)
[4]
  percentage damage caused to the plant, AMAPA (five-point scale): 5 (5=81-100%)
[5]
  percentage damage caused to the plant, AMARE (five-point scale): 4 (4=61-80%)
[6]
  percentage damage caused to the plant, IPOHE (five-point scale): 3 (3=41-60%)
[7]
  percentage damage caused to the plant, ECHCG (five-point scale): 1 (1=0-20%)
[8]
  percentage damage caused to the plant, AMAPA (five-point scale): 4 (4=61-80%)

## Cc1nnc(Cn2cc(C(F)(F)F)nc2-c2cnc(F)c(Cl)c2)s1 [Compound 1.164]
[1]
  percentage damage caused to the plant, AMARE (five-point scale): 5 (5=81-100%)
[2]
  percentage damage caused to the plant, IPOHE (five-point scale): 5 (5=81-100%)
[3]
  percentage damage caused to the plant, ECHCG (five-point scale): 4 (4=61-80%)
[4]
  percentage damage caused to the plant, AMAPA (five-point scale): 5 (5=81-100%)
[5]
  percentage damage caused to the plant, AMARE (five-point scale): 5 (5=81-100%)
[6]
  percentage damage caused to the plant, IPOHE (five-point scale): 3 (3=41-60%)
[7]
  percentage damage caused to the plant, ECHCG (five-point scale): 2 (2=21-40%)
[8]
  percentage damage caused to the plant, AMAPA (five-point scale): 4 (4=61-80%)

## Cn1ccc(Cn2cc(C(F)(F)F)nc2-c2cnc(Cl)c(F)c2)n1 [Compound 1.026]
[1]
  percentage damage caused to the plant, AMARE (five-point scale): 5 (5=81-100%)
[2]
  percentage damage caused to the plant, IPOHE (five-point scale): 5 (5=81-100%)
[3]
  percentage damage caused to the plant, ECHCG (five-point scale): 4 (4=61-80%)
[4]
  percentage damage caused to the plant, AMAPA (five-point scale): 5 (5=81-100%)
[5]
  percentage damage caused to the plant, AMARE (five-point scale): 4 (4=61-80%)
[6]
  percentage damage caused to the plant, IPOHE (five-point scale): 4 (4=61-80%)
[7]
  percentage damage caused to the plant, ECHCG (five-point scale): 3 (3=41-60%)
[8]
  percentage damage caused to the plant, AMAPA (five-point scale): 4 (4=61-80%)

## Cc1cc(Cn2cc(C(F)(F)F)nc2-c2ccc(Cl)nc2)nn1C [Compound 1.044]
[1]
  percentage damage caused to the plant, AMARE (five-point scale): 5 (5=81-100%)
[2]
  percentage damage caused to the plant, IPOHE (five-point scale): 1 (1=0-20%)
[3]
  percentage damage caused to the plant, ECHCG (five-point scale): 1 (1=0-20%)
[4]
  percentage damage caused to the plant, AMAPA (five-point scale): 5 (5=81-100%)
[5]
  percentage damage caused to the plant, AMARE (five-point scale): 4 (4=61-80%)
[6]
  percentage damage caused to the plant, IPOHE (five-point scale): 4 (4=61-80%)
[7]
  percentage damage caused to the plant, ECHCG (five-point scale): 1 (1=0-20%)
[8]
  percentage damage caused to the plant, AMAPA (five-point scale): 4 (4=61-80%)

## CCCn1nnnc1Cn1cc(C(F)(F)F)nc1-c1ccc(Cl)nc1 [Compound 1.140]
[1]
  percentage damage caused to the plant, AMARE (five-point scale): 1 (1=0-20%)
[2]
  percentage damage caused to the plant, IPOHE (five-point scale): 1 (1=0-20%)
[3]
  percentage damage caused to the plant, ECHCG (five-point scale): 1 (1=0-20%)
[4]
  percentage damage caused to the plant, AMAPA (five-point scale): 1 (1=0-20%)
[5]
  percentage damage caused to the plant, AMARE (five-point scale): 1 (1=0-20%)
[6]
  percentage damage caused to the plant, IPOHE (five-point scale): 1 (1=0-20%)
[7]
  percentage damage caused to the plant, ECHCG (five-point scale): 1 (1=0-20%)
[8]
  percentage damage caused to the plant, AMAPA (five-point scale): 1 (1=0-20%)

## Cc1cc(Cn2cc(C(F)(F)F)nc2-c2ccc(Cl)nc2)no1 [Compound 1.075]
[1]
  percentage damage caused to the plant, AMARE (five-point scale): 5 (5=81-100%)
[2]
  percentage damage caused to the plant, IPOHE (five-point scale): 5 (5=81-100%)
[3]
  percentage damage caused to the plant, ECHCG (five-point scale): 5 (5=81-100%)
[4]
  percentage damage caused to the plant, AMAPA (five-point scale): 5 (5=81-100%)
[5]
  percentage damage caused to the plant, AMARE (five-point scale): 5 (5=81-100%)
[6]
  percentage damage caused to the plant, IPOHE (five-point scale): 5 (5=81-100%)
[7]
  percentage damage caused to the plant, ECHCG (five-point scale): 5 (5=81-100%)
[8]
  percentage damage caused to the plant, AMAPA (five-point scale): 5 (5=81-100%)

## Cn1cnc(Cn2cc(C#N)nc2-c2ccc(F)c(F)c2)n1 [Compound 1.184]
[1]
  percentage damage caused to the plant, AMARE (five-point scale): 5 (5=81-100%)
[2]
  percentage damage caused to the plant, IPOHE (five-point scale): 5 (5=81-100%)
[3]
  percentage damage caused to the plant, ECHCG (five-point scale): 5 (5=81-100%)
[4]
  percentage damage caused to the plant, AMAPA (five-point scale): 5 (5=81-100%)
[5]
  percentage damage caused to the plant, AMARE (five-point scale): 5 (5=81-100%)
[6]
  percentage damage caused to the plant, IPOHE (five-point scale): 5 (5=81-100%)
[7]
  percentage damage caused to the plant, ECHCG (five-point scale): 4 (4=61-80%)
[8]
  percentage damage caused to the plant, AMAPA (five-point scale): 5 (5=81-100%)
